Measured values: patent US6632449B2, “Compositions and kits comprising a defined boron compound and methods of their preparation” (The Procter & Gamble Co., priority 2001, dated 2003)

Experiment: physchem
Settings: saturated aqueous solution of the boron compound
Excerpt: The pKa of the boron compound utilized herein may be determined as follows. […] Using an auto titrator, titrate the solution according to standard methods. The pKa of the boron compound is the pH at which the inflection point occurs in the resulting titration curve.

pKa: ~9.2
SMILES: OB(O)O [boric acid]
